Assay results as given in the NIST ThermoML archive (doi:10.1016/j.jct.2017.03.006).
± gives the expanded uncertainty stated by the source.

Experiment: xn = mol fraction of the nth substance listed
Conditions: Liquid; for viscosity: Concentric cylinders viscometry; for mass density: Vibrating tube method

Cc1ccc(C)c(C)c1 [1,2,4-trimethylbenzene] + CCC(C)O
Conditions | mass density [kg/m3] | viscosity [mPa·s]
323.15 K, 100 kPa, x2 = 0.7001 | – | 0.78 ± 0.017
323.15 K, 100 kPa, x2 = 0.7997 | – | 0.88 ± 0.019
323.15 K, 100 kPa, x2 = 0.9001 | – | 1.04 ± 0.022
333.15 K, 100 kPa, x2 = 0 | 843.6 ± 0.7 | 0.562 ± 0.012
333.15 K, 100 kPa, x2 = 0.1 | 835.7 ± 0.7 | –
333.15 K, 100 kPa, x2 = 0.1001 | – | 0.558 ± 0.012
333.15 K, 100 kPa, x2 = 0.1989 | 829.2 ± 0.7 | –
333.15 K, 100 kPa, x2 = 0.2261 | – | 0.554 ± 0.012
333.15 K, 100 kPa, x2 = 0.3 | – | 0.548 ± 0.012
333.15 K, 100 kPa, x2 = 0.3011 | 822.5 ± 0.7 | –
333.15 K, 100 kPa, x2 = 0.3966 | – | 0.568 ± 0.013
333.15 K, 100 kPa, x2 = 0.4002 | 816 ± 0.7 | –
333.15 K, 100 kPa, x2 = 0.5001 | 809.8 ± 0.7 | –
333.15 K, 100 kPa, x2 = 0.5298 | – | 0.567 ± 0.012
333.15 K, 100 kPa, x2 = 0.5997 | 802.2 ± 0.7 | –
333.15 K, 100 kPa, x2 = 0.6001 | – | 0.6 ± 0.013
333.15 K, 100 kPa, x2 = 0.6999 | 794.7 ± 0.7 | –
333.15 K, 100 kPa, x2 = 0.7001 | – | 0.65 ± 0.014
333.15 K, 100 kPa, x2 = 0.7997 | – | 0.72 ± 0.016
333.15 K, 100 kPa, x2 = 0.7999 | 787.1 ± 0.7 | –
333.15 K, 100 kPa, x2 = 0.9 | 779.1 ± 0.7 | –
333.15 K, 100 kPa, x2 = 0.9001 | – | 0.82 ± 0.018
333.15 K, 1000 kPa, x2 = 0 | 844.4 ± 0.7 | –
333.15 K, 1000 kPa, x2 = 0.1 | 836.5 ± 0.7 | –
333.15 K, 1000 kPa, x2 = 0.1989 | 830 ± 0.7 | –
333.15 K, 1000 kPa, x2 = 0.3011 | 823.3 ± 0.7 | –
333.15 K, 1000 kPa, x2 = 0.4002 | 816.8 ± 0.7 | –
333.15 K, 1000 kPa, x2 = 0.5001 | 810.7 ± 0.7 | –
333.15 K, 1000 kPa, x2 = 0.5997 | 803.1 ± 0.7 | –
333.15 K, 1000 kPa, x2 = 0.6999 | 795.6 ± 0.7 | –
333.15 K, 1000 kPa, x2 = 0.7999 | 788 ± 0.7 | –
333.15 K, 1000 kPa, x2 = 0.9 | 780 ± 0.7 | –
333.15 K, 2000 kPa, x2 = 0 | 845.2 ± 0.7 | –
333.15 K, 2000 kPa, x2 = 0.1 | 837.4 ± 0.7 | –
333.15 K, 2000 kPa, x2 = 0.1989 | 830.9 ± 0.7 | –
333.15 K, 2000 kPa, x2 = 0.3011 | 824.2 ± 0.7 | –
333.15 K, 2000 kPa, x2 = 0.4002 | 817.8 ± 0.7 | –
333.15 K, 2000 kPa, x2 = 0.5001 | 811.7 ± 0.7 | –
333.15 K, 2000 kPa, x2 = 0.5997 | 804 ± 0.7 | –
333.15 K, 2000 kPa, x2 = 0.6999 | 796.6 ± 0.7 | –
333.15 K, 2000 kPa, x2 = 0.7999 | 789 ± 0.7 | –
333.15 K, 2000 kPa, x2 = 0.9 | 781 ± 0.7 | –
333.15 K, 5000 kPa, x2 = 0 | 847.6 ± 0.7 | –
333.15 K, 5000 kPa, x2 = 0.1 | 840 ± 0.7 | –
333.15 K, 5000 kPa, x2 = 0.1989 | 833.5 ± 0.7 | –
333.15 K, 5000 kPa, x2 = 0.3011 | 826.9 ± 0.7 | –
333.15 K, 5000 kPa, x2 = 0.4002 | 820.4 ± 0.7 | –
333.15 K, 5000 kPa, x2 = 0.5001 | 814.4 ± 0.7 | –
333.15 K, 5000 kPa, x2 = 0.5997 | 806.9 ± 0.7 | –
333.15 K, 5000 kPa, x2 = 0.6999 | 799.5 ± 0.7 | –
333.15 K, 5000 kPa, x2 = 0.7999 | 791.9 ± 0.7 | –
333.15 K, 5000 kPa, x2 = 0.9 | 784 ± 0.7 | –
333.15 K, 10000 kPa, x2 = 0 | 851.4 ± 0.7 | –
333.15 K, 10000 kPa, x2 = 0.1 | 843.9 ± 0.7 | –
333.15 K, 10000 kPa, x2 = 0.1989 | 837.6 ± 0.7 | –
333.15 K, 10000 kPa, x2 = 0.3011 | 831.1 ± 0.7 | –
333.15 K, 10000 kPa, x2 = 0.4002 | 824.7 ± 0.7 | –
333.15 K, 10000 kPa, x2 = 0.5001 | 818.7 ± 0.7 | –
333.15 K, 10000 kPa, x2 = 0.5997 | 811.3 ± 0.7 | –
333.15 K, 10000 kPa, x2 = 0.6999 | 803.9 ± 0.7 | –
333.15 K, 10000 kPa, x2 = 0.7999 | 796.5 ± 0.7 | –
333.15 K, 10000 kPa, x2 = 0.9 | 788.6 ± 0.7 | –
333.15 K, 15000 kPa, x2 = 0 | 855.1 ± 0.7 | –
333.15 K, 15000 kPa, x2 = 0.1 | 847.9 ± 0.7 | –
333.15 K, 15000 kPa, x2 = 0.1989 | 841.6 ± 0.7 | –
333.15 K, 15000 kPa, x2 = 0.3011 | 835.1 ± 0.7 | –
333.15 K, 15000 kPa, x2 = 0.4002 | 828.8 ± 0.7 | –
333.15 K, 15000 kPa, x2 = 0.5001 | 822.9 ± 0.7 | –
333.15 K, 15000 kPa, x2 = 0.5997 | 815.5 ± 0.7 | –
333.15 K, 15000 kPa, x2 = 0.6999 | 808.2 ± 0.7 | –
333.15 K, 15000 kPa, x2 = 0.7999 | 800.8 ± 0.7 | –
333.15 K, 15000 kPa, x2 = 0.9 | 793 ± 0.7 | –
333.15 K, 20000 kPa, x2 = 0 | 858.6 ± 0.7 | –
333.15 K, 20000 kPa, x2 = 0.1 | 851.6 ± 0.7 | –
333.15 K, 20000 kPa, x2 = 0.1989 | 845.4 ± 0.7 | –
333.15 K, 20000 kPa, x2 = 0.3011 | 839 ± 0.7 | –
333.15 K, 20000 kPa, x2 = 0.4002 | 832.7 ± 0.7 | –
333.15 K, 20000 kPa, x2 = 0.5001 | 826.9 ± 0.7 | –
333.15 K, 20000 kPa, x2 = 0.5997 | 819.5 ± 0.7 | –
333.15 K, 20000 kPa, x2 = 0.6999 | 812.3 ± 0.7 | –
333.15 K, 20000 kPa, x2 = 0.7999 | 805 ± 0.7 | –
333.15 K, 20000 kPa, x2 = 0.9 | 797.2 ± 0.7 | –
333.15 K, 30000 kPa, x2 = 0 | 865.3 ± 0.7 | –
333.15 K, 30000 kPa, x2 = 0.1 | 858.6 ± 0.7 | –
333.15 K, 30000 kPa, x2 = 0.1989 | 852.5 ± 0.7 | –
333.15 K, 30000 kPa, x2 = 0.3011 | 846.2 ± 0.7 | –
333.15 K, 30000 kPa, x2 = 0.4002 | 840.1 ± 0.8 | –
333.15 K, 30000 kPa, x2 = 0.5001 | 834.4 ± 0.8 | –
333.15 K, 30000 kPa, x2 = 0.5997 | 827.1 ± 0.8 | –
333.15 K, 30000 kPa, x2 = 0.6999 | 819.9 ± 0.8 | –
333.15 K, 30000 kPa, x2 = 0.7999 | 812.7 ± 0.8 | –
333.15 K, 30000 kPa, x2 = 0.9 | 805 ± 0.8 | –
333.15 K, 40000 kPa, x2 = 0 | 871.6 ± 0.8 | –
333.15 K, 40000 kPa, x2 = 0.1 | 865.1 ± 0.8 | –
333.15 K, 40000 kPa, x2 = 0.1989 | 859.1 ± 0.8 | –
333.15 K, 40000 kPa, x2 = 0.3011 | 852.9 ± 0.8 | –
333.15 K, 40000 kPa, x2 = 0.4002 | 846.8 ± 0.8 | –
333.15 K, 40000 kPa, x2 = 0.5001 | 841.2 ± 0.8 | –
333.15 K, 40000 kPa, x2 = 0.5997 | 834.1 ± 0.8 | –
333.15 K, 40000 kPa, x2 = 0.6999 | 826.9 ± 0.8 | –
